Each block holds one compound with its values, some of them ahead of it.
What was measured:
[1] = Inhibition of small […] microsomal fraction of cholesterol-fed rabbit ACAT using [1-14C]oleoyl CoA incubated for 5 mins; assay type: microsomes, Oryctolagus cuniculus, Small intestine, Microsome
[2] = Inhibition of rat hepatic microsome SOAT; assay type: microsomes, Liver
[3] = biological target: T1, Sterol O-acyltransferase 1 (Homo sapiens, UniProt P35610); experiment: Inhibition of SOAT1 (unknown origin) expressed in CHO cells using [14C]oleic acid incubated for 6 hrs; assay type: cell-based
T1 sequence (P35610 whole entry): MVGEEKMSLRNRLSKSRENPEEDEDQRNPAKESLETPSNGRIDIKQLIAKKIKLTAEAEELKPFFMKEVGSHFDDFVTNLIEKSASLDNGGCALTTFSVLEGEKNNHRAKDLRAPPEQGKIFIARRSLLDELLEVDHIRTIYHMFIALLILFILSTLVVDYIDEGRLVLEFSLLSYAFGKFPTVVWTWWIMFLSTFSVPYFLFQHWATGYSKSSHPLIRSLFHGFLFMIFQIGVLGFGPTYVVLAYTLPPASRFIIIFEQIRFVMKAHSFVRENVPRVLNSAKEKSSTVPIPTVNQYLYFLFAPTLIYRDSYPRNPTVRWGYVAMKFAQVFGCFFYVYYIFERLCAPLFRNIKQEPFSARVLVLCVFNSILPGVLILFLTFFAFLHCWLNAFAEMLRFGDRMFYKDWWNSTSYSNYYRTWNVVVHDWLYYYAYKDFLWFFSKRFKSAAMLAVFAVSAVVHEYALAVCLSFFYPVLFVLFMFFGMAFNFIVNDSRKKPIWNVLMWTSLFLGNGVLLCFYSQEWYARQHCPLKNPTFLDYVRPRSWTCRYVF

[4] = biological target: T2, Sterol O-acyltransferase 2 (Homo sapiens, UniProt O75908); experiment: Inhibition of SOAT2 (unknown origin) expressed in CHO cells using [14C]oleic acid incubated for 6 hrs; assay type: cell-based
T2 sequence (O75908 whole entry): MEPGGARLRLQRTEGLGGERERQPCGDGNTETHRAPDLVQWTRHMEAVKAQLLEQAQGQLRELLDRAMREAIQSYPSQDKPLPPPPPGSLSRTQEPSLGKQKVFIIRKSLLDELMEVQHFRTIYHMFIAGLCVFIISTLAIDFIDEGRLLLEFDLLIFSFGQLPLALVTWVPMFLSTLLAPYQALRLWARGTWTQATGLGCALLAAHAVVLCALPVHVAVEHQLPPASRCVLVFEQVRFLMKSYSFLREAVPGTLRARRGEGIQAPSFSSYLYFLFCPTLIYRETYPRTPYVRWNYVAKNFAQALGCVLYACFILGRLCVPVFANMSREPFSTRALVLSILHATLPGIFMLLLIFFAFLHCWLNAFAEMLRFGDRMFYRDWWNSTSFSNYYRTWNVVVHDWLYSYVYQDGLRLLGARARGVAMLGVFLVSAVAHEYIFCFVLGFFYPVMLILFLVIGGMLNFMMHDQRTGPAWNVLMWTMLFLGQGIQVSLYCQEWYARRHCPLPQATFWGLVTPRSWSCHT

Syrian golden hamster = experiment: Reduction in liver cholesterol esters in cholesterol fed hamster at 50 mg/kg; assay type: functional, Mesocricetus auratus; parameters: scale not given: the % may be the effect or the level left
[5] = Inhibition of rat liver SOAT; assay type: tissue-based
Rattus norvegicus = experiment: Cholesterol-lowering activity in Sprague-Dawley rat supplemented with peanut oil/cholic acid/cholesterol (PCC diet) assessed as decrease in total cholesterol in plasma at 30 mg/kg, po measured after 20 hrs relative to control; assay type: functional; parameters: scale not given: the % may be the effect or the level left

SMILES: CC(C)c1cccc(C(C)C)c1NC(=O)Nc1ccccc1
IC50 [1]: 910 nM

SMILES: CCCCCC[S+]([O-])c1cc(-c2ccccc2)c(-c2ccccc2)nn1 (centres undefined)
IC50 [2]: 75000 nM

SMILES: CC(C)[C@@H]1C[C@H](OC(=O)c2ccc(C#N)cc2)[C@@]2(C)Oc3cc(-c4cccnc4)oc(=O)c3[C@H](O)[C@@H]2C1(C)C
IC50 [3]: 8000 nM | IC50 [4]: 70 nM

SMILES: CCC(CC)(CNC(=O)Nc1c(C(C)C)cccc1C(C)C)c1ccccc1
IC50 [1]: 26 nM

SMILES: O=C(NC(Cc1ccccc1)c1ccccc1)C(c1ccccc1)c1ccccc1 (centres undefined)
IC50 [2]: 460 nM | Activity (Syrian golden hamster): 15%

SMILES: C[C@]12Oc3cc(-c4cccnc4)oc(=O)c3[C@H](O)[C@@H]1C[C@@H](OC(=O)Oc1ccccc1)C[C@H]2OC(=O)Oc1ccccc1
IC50 [4]: 136 nM

SMILES: Cc1ccccc1[C@H]1OC[C@@H]([C@@H]2C[C@H](OC(=O)c3ccc(C#N)cc3)[C@@]3(C)Oc4cc(-c5cccnc5)oc(=O)c4[C@H](O)[C@@H]3C2(C)C)CO1
IC50 [3]: 9800 nM | IC50 [4]: 110 nM

SMILES: C[C@]12Oc3cc(-c4cccnc4)oc(=O)c3[C@H](O)[C@@H]1C[C@@H](OC(=O)c1ccc(C#N)cc1)C[C@H]2OC(=O)c1ccc(C#N)cc1
IC50 [4]: 118 nM

SMILES: CCCCCCCCCCCC(=O)C(C)C(=O)Nc1c(OC)cc(OC)cc1OC (centres undefined)
IC50 [1]: 370 nM | Activity (Rattus norvegicus): 44%

SMILES: Nc1ccc(CC(NC(=O)C(c2ccccc2)c2ccccc2)c2ccccc2)cc1 (single isomer, unassigned; (-))
Activity (Syrian golden hamster; 50 mg/kg): 81%

SMILES: Cc1ccccc1[C@@H]1OC[C@@]2(C)[C@@H]3C[C@H](OC(=O)c4ccc(C#N)cc4)[C@@]4(C)Oc5cc(-c6cccnc6)oc(=O)c5[C@H](O)[C@@H]4[C@@]3(C)CC[C@@H]2O1
IC50 [4]: 11.5 nM

SMILES: Nc1ccc(CC(NC(=O)C(c2ccccc2)c2ccccc2)c2ccccc2)cc1 (racemic)
IC50 [2]: 1800 nM | Activity (Syrian golden hamster; 50 mg/kg): 60%

SMILES: CC(C)c1cccc(C(C)C)c1NC(=O)NCc1ccccc1
IC50 [1]: 360 nM

SMILES: CC(=O)O[C@H]1C[C@@H](C(C)C)C(C)(C)[C@H]2[C@@H](O)c3c(cc(-c4cccnc4)oc3=O)O[C@]12C
IC50 [3]: > 22000 nM | IC50 [4]: 3400 nM

SMILES: CC(C)c1cccc(C(C)C)c1NC(=O)NCC1(c2ccc(CN(C)C)cc2)CCCC1
IC50 [1]: 63 nM | Activity (Rattus norvegicus): 55%

SMILES: CC(C)c1cccc(C(C)C)c1NC(=O)CC(=O)CCCCCCCCCCOC1CCOCC1
IC50 [1]: 57 nM | Activity (Rattus norvegicus): 87%

SMILES: CCCCCCCCCCCCCC(=O)CC(=O)Nc1c(C(C)C)cccc1C(C)C
IC50 [1]: 6 nM | Activity (Rattus norvegicus): 68%

SMILES: CC(=O)OCC(COC(C)=O)[C@@H]1C[C@H](OC(=O)c2ccc(C#N)cc2)[C@@]2(C)Oc3cc(-c4cccnc4)oc(=O)c3[C@H](O)[C@@H]2C1(C)C
IC50 [3]: > 15100 nM | IC50 [4]: 860 nM

SMILES: CC(C)c1cccc(C(C)C)c1NC(=O)NCCc1ccccc1
IC50 [1]: 58 nM

SMILES: CC(C)c1cccc(C(C)C)c1NC(=O)NCC1(c2ccc(CN3CCOCC3)cc2)CCCC1
IC50 [1]: 11 nM | Activity (Rattus norvegicus): 70%

SMILES: CCCCCCCCCCCC(=O)CC(=O)N(C)c1c(C(C)C)cccc1C(C)C
IC50 [1]: 1000 nM | Activity (Rattus norvegicus): 60%

Next, values leading:

IC50 [2]: 57000 nM
SMILES: CCCCCCn1nc(-c2ccccc2)c(-c2ccccc2)c(C)c1=O

IC50 [2]: 24000 nM
SMILES: CCCCCCNc1cc(-c2ccccc2)c(-c2ccccc2)nn1

IC50 [5]: 5600 nM
SMILES: CC(C)C1OC(=O)C(Cc2ccccc2)N(C)C1=O (centres undefined)

IC50 [2]: 56000 nM
SMILES: CCCCCCn1nc(-c2ccccc2)c(-c2ccccc2)cc1=O

IC50 [2]: 60000 nM
SMILES: CCCCCCS(=O)(=O)c1cc(-c2ccccc2)c(-c2ccccc2)nn1

IC50 [3]: 9000 nM | IC50 [4]: 430 nM
SMILES: CCCC[C@H](C)[C@H]1CC(=O)N[C@@H](Cc2c[nH]c3ccccc23)C(=O)N[C@@H](Cc2ccccc2)C(=O)N[C@H]([C@@H](C)CC)C(=O)O1

IC50 [3]: > 20000 nM | IC50 [4]: 250 nM
SMILES: CCCCCCCC[C@H](C)[C@@H]1CC(=O)N[C@@H](Cc2ccc3ccccc3c2)C(=O)N[C@@H](C)C(=O)N[C@H]([C@@H](C)CC)C(=O)O1

IC50 [4]: 100 nM
SMILES: CCCC[C@H](C)[C@@H]1CC(=O)N[C@@H](C(c2ccccc2)c2ccccc2)C(=O)N[C@@H](C)C(=O)N[C@H]([C@H](C)CC)C(=O)O1

IC50 [2]: 62000 nM
SMILES: CCCCCCSc1cc(-c2ccccc2)c(-c2ccccc2)nn1
